The experiment deals with seasonal allergic rhinitis. Briefly: Double-blinded, randomized clinical trials in seasonal allergic rhinitis patients.

Method: Efficacy endpoints in all the studies were Total Symptom Score, Total Nasal Symptom Score, Total Non-nasal Symptom Score, and Health Quality of Life (HQOL) analysis in efficacy trials. […] This parameter measures the total symptom relief by the patient after 24 hours before taking the next day dose.

Regarding `Clc1ccc2c(c1)CCc1cccnc1C2=C1CCNCC1` [Desloratadine, desloratadine], the Total symptom scores entry (5 mg once daily, adult and adolescent seasonal allergic rhinitis patients) was “significantly reduced”. For the setting “5 mg, seasonal allergic rhinitis patients”, the “Reduction of nasal symptoms versus placebo” value is given as “significantly (p<0.01) more effective than placebo”. Further, the “AM NOW total symptom score” value (24 hours after dose, over the entire dosage range) was “Statistically significant (p<0.05) reductions were maintained for the full 24 hour dosing interval”.

Values taken from patent publication US20060154948A1, “Treating allergic and inflammatory conditions” (priority 2005, published 2006).
